According to patent US20050261472A1, “Binding moieties for fibrin” (Dyax Corp., priority 1999, published 2005):
Bridge positions count the residues as written; N and C are the ends. Peptide text beside a SMILES is read from it.

Tests used:
Assay type in all cases: binding
DD(E) = target: T1, DD(E) (Homo sapiens, UniProt P02671+P02675+P02679); assay: dissociation constant against fibrin-derived polypeptide DD(E); details: read-out: Kd DD(E)
T1 construct: host or cells: purchased fibrinogen clotted with thrombin, digested with plasmin, then purified by ammonium sulfate cuts and Sephacryl S200
Experimental: The soluble fibrin-derived polypeptide DD(E) was prepared following a modification of a published method (Moskoitz and Budzynksi, Biochemistry, 33: 12937-12944 (1994) and references therein). Fibrinogen containing a Factor XIII trace impurity (1 g, Grade L; purchased from American Diagnostica) was dissolved in TBS buffer and dialyzed overnight against TBS containing 5 mM citrate. The fibrinogen concentration was adjusted to 3.0 mg/ml and CaCl2 was added to a concentration of 10 mM. Clotting of the fibrinogen was initiated by the addition of thrombin to 0.5 U/ml and the clot was incubated for 3 hours at 37° C. The clot was cut up with a spatula to release water and to concentrate the clot. The clot pieces were washed twice with TBS.Ca buffer (TBS containing 2 mM CaCl2) and were centrifuged at 4,000×g to compact the clots between washes. The clot material was resuspended in 250 ml TBS containing 25 mM CaCl2 and 2 K.I.U. plasmin per mg fibrin. The clots were digested overnight at 20° C. Undigested clot was removed by pipette, and the supernatant was shaken with 10 ml of Lysine Sepharose (Pharmacia) for 30 minutes and filtered to remove the resin. Aprotinin was added to the filtrate to a concentration of 500 U/μL. Ammonium Sulfate was added to 30% saturation and the precipitated protein was removed by centrifugation. More ammonium sulfate was added to the supernatant to a final concentration of 50% saturation, and the precipitated protein was concentrated by centrifugation. The pellets, containing DD(E), were resuspended in a small volume of buffer (50 mM Tris, 150 mM NaCl, 2 mM CaCl2) (<10 ml) and chromatographed on a Sephacryl S200 (Pharmacia) size exclusion column (5×100 cm) in the same buffer. Fractions of protein eluted from the column were assayed by SDS-PAGE for DD(E). DD(E) contains subunits of 55 kD (Fragment E) and 190 kD (Fragment DD). […]
Dissociation constants were determined against DD(E) as described above.

dried fibrin = target: T2, dried fibrin (Homo sapiens, UniProt P02671+P02675+P02679); assay: dissociation constant against dried fibrin (free peptide by mass spectrometry)
T2 construct: Thrombin cleavage at the Arg16-Arg17 bond in the Ax chains and at the Arg14-Gly15 bond on the BP chains releases fibrinopeptides A and B; host or cells: fibrinogen solution clotted with thrombin in 96-well plates and dried at 37 C
T2 sequence (P02671 36-629 limits assumed): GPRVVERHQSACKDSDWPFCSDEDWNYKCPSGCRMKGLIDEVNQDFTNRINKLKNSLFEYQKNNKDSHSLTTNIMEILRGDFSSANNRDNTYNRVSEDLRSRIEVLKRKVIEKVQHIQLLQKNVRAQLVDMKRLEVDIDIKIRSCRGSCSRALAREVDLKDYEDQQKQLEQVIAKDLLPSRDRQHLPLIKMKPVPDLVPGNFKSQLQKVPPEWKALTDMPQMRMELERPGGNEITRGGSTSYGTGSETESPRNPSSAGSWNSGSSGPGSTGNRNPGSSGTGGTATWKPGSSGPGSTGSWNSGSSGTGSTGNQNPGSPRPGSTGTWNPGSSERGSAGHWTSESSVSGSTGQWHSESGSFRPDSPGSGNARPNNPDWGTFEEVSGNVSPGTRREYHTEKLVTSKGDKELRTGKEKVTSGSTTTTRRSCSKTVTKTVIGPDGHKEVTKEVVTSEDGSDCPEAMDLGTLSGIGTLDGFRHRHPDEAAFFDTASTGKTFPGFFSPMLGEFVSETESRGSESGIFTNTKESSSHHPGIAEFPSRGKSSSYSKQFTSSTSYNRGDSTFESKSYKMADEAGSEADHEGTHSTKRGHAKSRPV
T2 sequence (P02675 45-491 limits assumed): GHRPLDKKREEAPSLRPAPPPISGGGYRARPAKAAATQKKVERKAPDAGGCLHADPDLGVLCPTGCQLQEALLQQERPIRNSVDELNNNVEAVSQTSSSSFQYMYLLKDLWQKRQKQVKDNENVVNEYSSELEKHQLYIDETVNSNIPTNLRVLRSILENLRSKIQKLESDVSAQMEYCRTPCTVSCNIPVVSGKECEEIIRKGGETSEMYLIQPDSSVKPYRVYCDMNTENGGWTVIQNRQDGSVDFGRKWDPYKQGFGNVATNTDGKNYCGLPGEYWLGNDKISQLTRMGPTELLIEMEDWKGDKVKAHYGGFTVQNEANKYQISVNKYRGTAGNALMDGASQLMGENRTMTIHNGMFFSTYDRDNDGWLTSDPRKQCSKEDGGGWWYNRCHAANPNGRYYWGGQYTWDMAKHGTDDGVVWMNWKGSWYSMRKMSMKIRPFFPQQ
T2 sequence (P02679 27-437 isoform P02679-2 limits assumed): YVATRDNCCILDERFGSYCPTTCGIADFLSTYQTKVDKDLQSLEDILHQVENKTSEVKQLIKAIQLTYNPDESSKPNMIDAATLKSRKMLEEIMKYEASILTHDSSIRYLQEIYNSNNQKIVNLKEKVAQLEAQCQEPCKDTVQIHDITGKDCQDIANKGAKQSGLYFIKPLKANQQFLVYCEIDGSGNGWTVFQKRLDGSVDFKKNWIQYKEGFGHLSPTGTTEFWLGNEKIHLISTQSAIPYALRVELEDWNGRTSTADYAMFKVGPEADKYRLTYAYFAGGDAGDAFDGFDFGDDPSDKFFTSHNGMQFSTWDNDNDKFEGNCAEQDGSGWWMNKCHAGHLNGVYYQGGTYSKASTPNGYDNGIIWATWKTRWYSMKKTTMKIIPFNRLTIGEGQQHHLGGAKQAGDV
Experimental: A fibrinogen solution was prepared at 10 mg/ml (or at twice the concentration of fibrin desired) in TBS buffer (50 mM Tris, 150 mM NaCl, pH 7.4). The fibrinogen solution typically contained ˜17 mM citrate. Subsequently, a solution was prepared containing 2 U/ml thrombin, 20 mM CaCl2, and 5 mM ε-aminocaproic acid in TBS. The fibrinogen solution and thrombin solution were mixed 1:1 in the wells of a 96-well plate, aliquoting 50 μL of each solution in each well (total volume=100 μL). The plates were evaporated to dryness overnight at 37° C. The polypeptide to be tested, dissolved in water, was added to each well at concentrations between 1-200 μM. A typical binding assay contained 24 points at concentrations of 2, 4, 6, 8, 10, 12, 14, 17, 20, 23, 26, 30, 35, 40, 45, 50, 60, 70, 80, 100, 125, 150, 175, and 200 μM. The plate containing the peptide and (rehydrated) dried fibrin was covered and incubated at 37° C. on a shaker table for 2 hours.
The supernatant in each well was removed by pipette and the concentration of the polypeptide was measured by mass spectrometry. The ion current detected at the mass of the peptide was monitored after injection of a sample into the mass spectrometer. The area-under-the-peak was quantitated and compared to standards of known concentration. The concentration of peptide in the supernatant is equal to the concentration of free peptide. The concentration of bound peptide was determined by subtracting the concentration of free peptide from the total (starting) concentration. A plot of [Bound Peptide] vs. [Free Peptide] was used to determine the Kd and the concentration of bound peptide at saturation. The curve was fit to the equation: [Bound]=N×[Free]/(Kd+[Free]) where [Bound] is the concentration of bound polypeptide, [Free] is the concentration of free polypeptide, Kd is the dissociation constant (equal to the reciprocal of Ka) and N is the concentration of binding sites. The number of binding sites per fibrin molecule was equal to the lo concentration of binding sites determined by the [Bound Polypeptide] vs. [Free Polypeptide] plot, divided by the concentration of fibrin (15 μM) used in the assay.

fibrin = target: T3, fibrin (Homo sapiens, UniProt P02671+P02675+P02679); assay: dried fibrin plate ELISA of phage isolates; details: phage isolates from TN7 library; symbols not defined
T3 construct: Thrombin cleavage at the Arg16-Arg17 bond in the Ax chains and at the Arg14-Gly15 bond on the BP chains releases fibrinopeptides A and B; host or cells: fibrinogen solution clotted with thrombin in 96-well plates and dried at 37 C
T3 sequence (P02671 36-629 limits assumed): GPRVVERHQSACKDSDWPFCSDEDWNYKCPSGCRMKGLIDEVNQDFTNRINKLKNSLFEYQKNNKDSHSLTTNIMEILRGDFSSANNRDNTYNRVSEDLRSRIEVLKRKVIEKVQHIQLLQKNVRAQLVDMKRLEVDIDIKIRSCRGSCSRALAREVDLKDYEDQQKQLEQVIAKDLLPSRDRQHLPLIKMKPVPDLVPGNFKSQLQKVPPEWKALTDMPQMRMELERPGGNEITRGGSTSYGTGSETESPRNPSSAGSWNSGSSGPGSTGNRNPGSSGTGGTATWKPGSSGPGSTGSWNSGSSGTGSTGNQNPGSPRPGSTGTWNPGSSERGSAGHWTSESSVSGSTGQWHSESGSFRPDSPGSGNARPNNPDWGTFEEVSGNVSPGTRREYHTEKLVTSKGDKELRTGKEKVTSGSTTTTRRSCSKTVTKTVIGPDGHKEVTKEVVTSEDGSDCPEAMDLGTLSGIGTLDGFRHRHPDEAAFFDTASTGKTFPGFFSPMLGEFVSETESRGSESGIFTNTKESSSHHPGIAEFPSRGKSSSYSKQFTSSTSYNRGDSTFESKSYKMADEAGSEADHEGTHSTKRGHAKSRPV
T3 sequence (P02675 45-491 limits assumed): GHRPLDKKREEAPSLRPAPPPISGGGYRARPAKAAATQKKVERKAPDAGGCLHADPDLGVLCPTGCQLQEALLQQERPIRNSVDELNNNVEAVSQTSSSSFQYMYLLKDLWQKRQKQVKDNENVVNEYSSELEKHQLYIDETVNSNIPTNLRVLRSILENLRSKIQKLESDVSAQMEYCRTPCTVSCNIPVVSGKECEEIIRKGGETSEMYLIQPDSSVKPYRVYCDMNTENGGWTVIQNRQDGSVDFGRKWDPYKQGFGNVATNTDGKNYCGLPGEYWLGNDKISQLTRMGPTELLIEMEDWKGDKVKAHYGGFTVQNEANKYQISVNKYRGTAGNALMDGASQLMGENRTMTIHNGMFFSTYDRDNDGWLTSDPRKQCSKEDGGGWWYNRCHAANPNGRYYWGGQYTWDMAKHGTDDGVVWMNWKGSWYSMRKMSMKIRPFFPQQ
T3 sequence (P02679 27-437 isoform P02679-2 limits assumed): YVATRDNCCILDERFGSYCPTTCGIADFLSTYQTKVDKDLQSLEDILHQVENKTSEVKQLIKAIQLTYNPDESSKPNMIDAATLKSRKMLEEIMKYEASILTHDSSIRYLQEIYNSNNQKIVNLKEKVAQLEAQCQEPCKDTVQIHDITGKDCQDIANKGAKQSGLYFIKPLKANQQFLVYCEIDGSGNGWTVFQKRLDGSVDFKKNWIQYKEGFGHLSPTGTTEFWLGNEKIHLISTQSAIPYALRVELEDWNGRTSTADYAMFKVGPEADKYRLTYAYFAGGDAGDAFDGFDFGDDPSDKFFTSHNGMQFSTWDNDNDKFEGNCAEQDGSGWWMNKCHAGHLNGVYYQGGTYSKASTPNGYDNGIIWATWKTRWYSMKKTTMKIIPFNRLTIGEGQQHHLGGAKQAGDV
Experimental: For screening libraries to isolate binding moieties for fibrin, two fibrin targets, i.e., synthetic fibrin clots and then a soluble fibrin fragment, DD(E), were prepared. To prepare fibrin for screening, dilute fibrin clots were formed in the wells of a 96-well plate, dried down to a thin layer, and then rehydrated prior to library screening. In a typical procedure, a 0.15 mg/ml fibrinogen solution was prepared in TBS buffer (50 mM Tris, 150 mM NaCl, pH 7.4). A solution containing 2 U/ml thrombin, 10 mM CaCl2, and 5 mM ε-aminocaproic acid in TBS was prepared. The fibrinogen solution and thrombin solution were mixed 1:1 in the wells of a 96-well plate, aliquoting 25 μL of each solution in each well (total volume=50 μL). The plates were evaporated to dryness by incubating them at 37° C. overnight. Just before a phage library was added to the dried fibrin target, the fibrin wells were washed three times for 10 minutes with phage blocking buffer (TBS containing 2 mM CaCl2, 0.1% Tween-20, and 0.1% human serum albumin (HSA)).
After five rounds of selection, the eluted phage were propagated and a portion plated to isolate phage plaques arising from individual clones. Ninety such clones were selected randomly, propagated, and tested individually for binding to fibrin in a dried fibrin plate assay. Dried fibrin plates were prepared as described above for the library screening. Phage samples (˜10^9 phage each) were incubated in the dried fibrin plate wells in binding buffer (50 mM Tris, 150 mM NaCl, 2 mM CaCl2, 0.05% Tween-20) containing 0.1% HSA. After 1 hour, the plates were washed 5 times with binding buffer. Anti-M13 antibody conjugated to horseradish peroxidase (Pharmacia) was added at 1/5000 dilution in binding buffer to the wells and incubated with the fibrin for 1 hour. The wells were again washed 5 times with binding buffer and the presence of the antibody/phage/fibrin complex was measured with HRP calorimetric reagents (3,3′,5,5′-tetrarnethylbenzidine (TMB) and H2O2). A high absorbance at 595 nm (due to oxidized TMB) was indicative of a tight phage/fibrin interaction, and phage clones corresponding to those wells were identified as bearing fibrin-binding moieties.
The amino acid sequence data from these phage isolates were sorted according to the degree of similarity and response in the fibrin ELISA assay.

Compound | Kd (DD(E)) [µM] | Kd (dried fibrin) [µM] | relative binding (fibrin)
CC(C)C[C@H](NC(=O)[C@@H]1CSSC[C@H](NC(=O)[C@@H]2CCCN2C(=O)[C@@H](N)CC(C)C)C(=O)N[C@@H](C)C(=O)N[C@@H](Cc2ccc(O)cc2)C(=O)N[C@@H](Cc2ccc(O)cc2)C(=O)NCC(=O)N[C@@H]([C@@H](C)O)C(=O)N1)C(=O)N[C@@H](CC(=O)O)C(N)=O [SEQ ID NO: 42, LPCAYYGTCLD] (H-LPCAYYGTCLD-NH2; disulfide 3-9) | 5.9 | 23 | –
CC(C)CC(N)C(=O)N1CCCC1C(=O)NC1CSSCC(C(=O)NC(CC(C)C)C(=O)NC(CC(=O)O)C(N)=O)NC(=O)C(C(C)O)NC(=O)CNC(=O)C(Cc2ccc(O)cc2)NC(=O)C(Cc2ccc(O)cc2)NC(=O)C(CC(=O)O)NC1=O (centres unmarked) [SEQ ID NO: 9, LPCDYYGTCLD] | 2.6 | 2.7 | –
9 (LPCDYYGTCLD; synthetic fibrin binding peptide) [compound 9] | – | – | + + +
H-LPSDYYGTSLD-NH2 [compound 38] | > 100 | > 100 | –
7 (FACHYYGTCLH; synthetic fibrin binding peptide) [compound 7] | – | – | + + +
8 (RPCDYYGTCFD; synthetic fibrin binding peptide) [compound 8] | – | – | + + +
CC(C)C[C@H](NC(=O)[C@@H]1CSSC[C@H](NC(=O)[C@H](C)NC(=O)[C@@H](N)Cc2ccccc2)C(=O)N[C@@H](Cc2c[nH]cn2)C(=O)N[C@@H](Cc2ccc(O)cc2)C(=O)N[C@@H](Cc2ccc(O)cc2)C(=O)NCC(=O)N[C@@H]([C@@H](C)O)C(=O)N1)C(=O)N[C@@H](Cc1c[nH]cn1)C(N)=O [SEQ ID NO: 7, FACHYYGTCLH] (H-FACHYYGTCLH-NH2; disulfide 3-9) | 7.3 | 23 | –
